Like-named read-outs stand apart in the source and are kept apart here.
Experiments:
rat brain synaptosomes = test: Noradrenaline release from permeated synaptosomes; format: cell-based; settings: 100 µM to 1 µM; low (10 nM) and high (10 µM) Ca²⁺
Method: Highly purified synaptosomes were prepared according to Dunkley and Robinson (1987). The synaptosomes were diluted with 3 ml buffer A (123 mM NaCl, 5 mM KCl, 2 mM CaCl₂, […], 1.15 mM NaH₂PO₄, 5.6 mM glucose, 20 mM PIPES pH 6.8, gassed with O₂:CO₂, 95:5) and incubated for 15 min at 37°C. Then 2.5 µCi noradrenalin (NA) was added, incubation was continued for 15 min and the synaptosomes were centrifuged for 20 min at 600 x g. The resulting pellet was washed twice in buffer A without CaCl₂ and resuspended (1 mg protein/ml).
For measurement of NA release, prelabeled synaptosomes were incubated at 37°C in buffer A containing Na₂ATP and EGTA-buffered Ca²⁺ in concentrations as indicated (final volume 120 µl). The release reaction was started by adding synaptosomes (20 µg protein) to the reaction mixture and terminated after 5 min by 30 sec centrifugation at 10,000 x g. The supernatant (90 µl) was collected and counted in a Packard Model 2,000 CA liquid scintillation counter with Picofluor as a scintillation cocktail. NA release was expressed as % of total [³H]-NA incorporated. Total NA incorporation was determined by measuring [³H]-incorporation in 20 µg prelabeled washed synaptosomes.

50 kDa protein = test: Phosphorylation of synaptosomal plasma membranes: CaM-dependent phosphorylation of the 50 kDa protein; format: biochemical; settings: in the presence of exogenous CaM (3 units/assay); read-out: IC₅₀-value, CaM-dependent phosphorylation of the 50 kDa protein
Method: Subcellular fractionation and phosphorylation assay were performed according to Kristjansson et al., (1982). […] After a preincubation at 30°C for 5 min, the phosphorylation reaction was started by adding the ATP. The reaction was stopped after 15 sec. All compounds to be tested were present at the start of the preincubation. […] Phosphorylation of B-50 and the 50 kDa protein, which was only phosphorylated after addition of CaM, was measured in the presence of exogenous CaM (3 units/assay) and quantified.

[1] = system: TPA-induced ear edema in mice; test: Intraperitoneal administration, TPA-induced ear edema in mice; format: in vivo; settings: intraperitoneally, 30 mg/kg, 3 h after challenge
Method: Mice were injected intraperitoneally with 30, 10 or 3.3 mg/kg body weight of the test substances, sphingosine in carboxymethylcellulose (0.5%) and tiflucarbine in physiologic Saline, 10 ml/kg body weight. After 60 minutes the mire were challenged on the left ear with a 0.01 wt% solution of 12-O-tetradecanoylphorbol-13-acetate (TPA) in a 80/20 mixture of acetone/water. At 0, 3, 6 and 24 h after challenge, ear thickness was determined.

calmodulin = calmodulin (Homo sapiens, UniProt P0DP23); settings: Schmidt et al. (1990); cited from earlier work
[2] = system: Normal human keratinocytes; test: Cornified envelope formation (keratinocyte differentiation); format: cell-based; settings: 4 h plus 48 h exposure, increasing concentrations
Method: Normal human keratinocytes were grown to confluence at low calcium concentration in the presence of 5% FCS, 1 µM isoproterenol and 10 ng EGF per ml. They were first exposed for 4 h to increasing concentrations of test compounds and subsequently reincubated for 48 h in medium containing normal calcium concentration and the same additives, test compounds and [³H]-leucine (1 µCi/ml). Thereafter, both spontaneous and ionophore-induced cornified envelope (CE) formation was determined [King et al. (1986) Exp. Cell. Res., 167: 252].

[3] = system: human polymorphonuclear leukocytes (PMNL); test: ROS generation from PMNL, lucigenin-amplified chemiluminescence; format: cell-based; settings: for IC50: Homo sapiens, PMNL
Method: Human PMNL were isolated from fresh blood (anticoagulated with sodium citrate) by erythrocyte sedimentation with 1% dextran (Pharmacia, Uppsala, Sweden) centrifugation of the resulting supernatant, followed by hypoosmotic lysis to remove red blood cells. Washed cells were adjusted to 2 x 10⁶ cells/ml in PBS containing fetal calf serum (2%; v/v). Test compounds dissolved in DMSO were diluted with the assay buffer to a final DMSO concentration of 0.5% (v/v).
Then the test compounds (100 µl) were added with subsequent recording for another 16 min period. […] Results were expressed as percent of inhibition or stimulation of the controls (mean of two integrals) in a single experiment.

PKC = settings: in-vitro tests; Hegemann et al. (1989); cited from earlier work
PMHL = test: Nonspecific cytotoxicity, trypane blue exclusion test; format: cell-based, human
Method: Nonspecific cytotoxicity of the test compounds on PMHL was assessed by […] blue exclusion test.

CCN1CCc2[nH]c3cc(F)c4scc(C)c4c3c2C1 [Tiflucarbine, 1-methyl-9-ethyl-4-fluoro-7,8,9,10-tetra:hydro-thieno-[3,2-e]-pyrido-[4,3-b]-indole lactate]
noradrenaline release (rat brain synaptosomes): did not display any significant effects | IC50 (50 kDa protein): < 1 µM | ear edema (ear thickness) [1]: reduced ear edema | binding to calmodulin (calmodulin): bind to calmodulin | spontaneous CE formation [2]: no effect | IC50 ([3]; 16 min, compound added at peak, 16 min after opsonized zymosan, IC₅₀-values, read-out: Peak CL): 14 µM | IC50 ([3]; 30 min preincubation, unstimulated, IC₅₀-values, read-out: Spontaneous CL): 7.2 µM | IC50 ([3]; stimulation with opsonized zymosan after preincubation, IC₅₀-values, read-out: Induced CL): 7.4 µM | IC50 ([3]; unstimulated cells and cells stimulated with opsonized zymosan or PMA, read-out: IC₅₀ values, inhibition of ROS generation): 7 µM | inhibition of peak chemiluminescence to 50%, fold higher concentrations ([3]; both stimuli (opsonized zymosan, PMA), relative to the IC₅₀ of 7 µM): 2-3 fold | induction of the release of reactive oxygen species ([3]; human PMNL, unstimulated): does not induce the release | PKC activity (PKC): significantly inhibit PKC activity | Trypane blue (PMHL): 300 µM

Source: patent EP0499337A1, “Use of tetra:hydro-thieno-pyrido-indole derivatives for the treatment of skin disorders” (YAMANOUCHI EUROPE B.V., priority 1991, dated 1992)
